From patent US20150289512A1, “METHOD FOR PROMOTING PLANT GROWTH” (SUMITOMO CHEMICAL COMPANY, LIMITED, priority 2012, published 2015)

How the values were obtained:
Assay type in all cases: in vivo
[1] = tested on: Rice (variety: Nipponbare); test: Test Example 1: promotion of root growth by hydroponics of rice, 10 ppm; details: Oryza sativa, hydroponic solution containing the test compound at 10 ppm, average of 4 or 5 individuals, read-out: Relative value of length of seminal root (%-untreated control plot)
How it was run: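 Surface-sterilised seeds germinated 3 days in the dark at 28° C in hydroponic solution with compound at 10 ppm, then grown 3 days hydroponically with compound at 10 ppm (26° C, 4,000 lux, 16 h day, 50% humidity). Seminal root length measured by image analysis, averaged over 4 or 5 plants per plot.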

[2] = tested on: Nicotiana benthamiana; test: Test Example 5: growth promotion under low-temperature stress by hydroponics of Nicotiana benthamiana, 1 ppm; details: 1 ppm in medium, low-temperature stress 7 days at 1.5±1.0° C., green leaf area 3 days later, equation (1)
How it was run: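 Seeds were grown in half-strength Murashige–Skoog medium (pH 5.8) containing 1 ppm compound for 7 days at 22 °C, then chilled 7 days at 1.5±1.0 °C and recovered 3 days at 22 °C. Green leaf area was imaged. Relative leaf area = 100×(treated − untreated)/(unstressed untreated − stressed untreated).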

[3] = tested on: Corn seeds (variety: Pioneer 120 31P41); test: Test Example 14: growth promotion under low-temperature stress by soil drench treatment of corn; details: Zea mays, 120 h, soil drench 20 ml, low-temperature stress 5 days at 2.5° C., health score 0-5, average of 4 individuals, read-out: Relative value of score (%- untreated control plot); for change in vivo at 0.3 ppm: concentration tested 0.3 ppm; for change in vivo at 1 ppm: concentration tested 1 ppm; for change in vivo at 10 ppm: concentration tested 10 ppm
Method: Test for Evaluating Growth Promotion Under Low-Temperature Stress by Soil Drench Treatment of Corn
Corn seeds (variety: Pioneer 120 31P41) were seeded in a culture soil (Aisai) in a plastic pot (φ55 mm×height of 58 mm), and cultivated for 7 days at 20-25° C., an illuminance of about 5,000 lux, and a day length of 16 hours.
A DMSO solution, which contained one of the compounds 1 to 9, 16, 17, 20, 23, 24, 28 to 32, 34, 45, 48, 50, 82 and 85 of the present invention at a concentration of 1,000-fold concentration of each test concentration, was prepared, and then diluted with distilled water to obtain each test solution. After that, 20 ml of the obtained test solution was used to perform soil drench treatment on the foot of the test plants. The test plants were cultivated for 2 days under the conditions of a temperature of 27° C., a humidity of 40-80%, an illuminance of about 5,000 lux, and a day length of 16 hours. This was used as a test plot treated with the compound. A plot having undergone the soil drench treatment with 20 ml of a 0.1% DMSO aqueous solution instead of the above DMSO solution containing the compound was used as an untreated control plot.
The plants having undergone the soil drench treatment were cultivated for 5 days under the conditions of a temperature of 2.5° C., a humidity of 40-80%, an illuminance of about 5,000 lux, and a day length of 16 hours, thereby exposing to low-temperature stress. After the exposure to the low-temperature stress, the plants were cultivated for 4 days under the conditions of a temperature of 27° C., a humidity of 40-80%, an illuminance of about 5,000 lux, and a day length of 16 hours.
After the cultivation, the health of each plant was scored according to the following evaluation index.
5: 4 or more leaves in which ⅔ or more of the area was healthy
4: 3 leaves in which ⅔ or more of the area was healthy
3: 2 leaves in which ⅔ or more of the area was healthy
2: 1 leaf in which ⅔ or more of the area was healthy
1: No leaf in which ⅔ or more of the area was healthy
An average of the scores of the health of 4 individuals was determined.

[4] = tested on: Rice (variety: Nipponbare); test: Test Example 3: promotion of root growth by hydroponics of rice, 0.1 ppm; details: Oryza sativa, hydroponic solution containing the test compound at 0.1 ppm, average of 4 or 5 individuals, read-out: Relative value of length of seminal root (%-untreated control plot)
How it was run: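 Surface-sterilised Nipponbare seeds were germinated 3 days in the dark at 28 °C in ¼-strength Hoagland solution containing 0.1 ppm compound; DMSO-only solution served as control. Seedlings were then grown 3 days hydroponically at 26 °C, 4,000 lux, 16 h day. Seminal root length was measured and averaged over 4–5 plants.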

[5] = tested on: Nicotiana benthamiana; test: Test Example 6: growth promotion under low-temperature stress by hydroponics of Nicotiana benthamiana, 0.1 ppm; details: 0.1 ppm in medium, low-temperature stress 7 days at 1.5±1.0° C., green leaf area 3 days later, equation (1)
Method: Test for Evaluating Growth Promotion Under Low-Temperature Stress by Hydroponics of Nicotiana benthamiana
A DMSO solution, which contained one of the compounds 3, 7, 14, 16, 36, 39, 43, 45, 50, 52, 53, 54, 56, 57, 62, 63, 64, 65, 68, 69, 70, 71, 73, 74, 76, 77, 79, 80, 81, 84, 85, 86 and 87 of the present invention at a concentration of 100 ppm, was prepared. The DMSO solution of the compound of the present invention was added at a volume ratio of 1/1,000 to the Murashige•Scoog medium of a ½-fold concentration for the Murashige•Scoog medium (a medium containing 2.3 g of mixed salts (manufactured by Wako Pure Chemical Industries, Ltd.), 200 mg of Myo-inositol (manufactured by Sigma-Aldrich Co. LLC.), 2 mg of nicotinic acid (manufactured by Wako Pure Chemical Industries, Ltd.), 2 mg of pyridoxine hydrochloride (manufactured by Wako Pure Chemical Industries, Ltd.), 20 mg of thiamine hydrochloride (manufactured by Wako Pure Chemical Industries, Ltd.), 20 g of sucrose (manufactured by Wako Pure Chemical Industries, Ltd.), and 1 g of MES (manufactured by DOJINDO LABORATORIES) per 1 L of water and having pH adjusted to 5.8), thereby preparing a medium containing the compound of the present invention at a concentration of 0.1 ppm.
Seeds of Nicotiana benthamiana were seeded in the 5 μL of the medium and cultured overnight at 22° C. Thereafter, 45 μL of the medium containing the compound of the present invention at a concentration of 0.1 ppm was added thereto, and the seeds are cultivated for 7 days at 22° C., an illuminance of 4,000 lux, and a day length of 16 hours, and the nursery plants raised from the Nicotiana benthamiana were treated with the compound. Moreover, instead of the above medium a test plot, which was obtained by performing the same treatment by using a medium prepared by adding DMSO to the Murashige•Scoog medium of ½-fold concentration at a volume ratio of 1/1,000, was used as a control plot not treated with the compound.
The nursery plants of the Nicotiana benthamiana treated with the compound were subjected to low-temperature treatment by being cultivated for 7 days at 1.5±1.0° C., an illuminance of 2,000 lux, and a day length of 16 hours.
The nursery plants of the Nicotiana benthamiana having undergone the low-temperature stress treatment were cultivated for 3 days at 22° C., an illuminance of 4,000 lux, and a day length of 16 hours. Thereafter, the area of green leaf was quantified by Scanalyzer HTS (manufactured by LemnaTec GmbH). Moreover, the value of the control plot not treated with the compound that had not yet been subjected to the low-temperature stress treatment was measured in the same manner. A value of a relative leaf area was calculated based on the following equation (1), and if the value of a relative leaf area was 5 or greater, the compound was evaluated to have a mitigating effect. As a result of the evaluation, it was confirmed that when the plant was treated with one of the compounds 3, 7, 14, 16, 36, 39, 43, 45, 50, 52, 53, 54, 56, 57, 62, 63, 64, 65, 68, 69, 70, 71, 73, 74, 76, 77, 79, 80, 81, 84, 85, 86 and 87 of the present invention at 0.1 ppm, the value of a relative leaf area was 5 or greater, compared to the area of green leaf of the control plot not treated with compound. Accordingly, it was confirmed that the treatment using the compound of the present invention brings about a growth promotion effect.
Relative leaf area=100*(a green area of a plot treated with the compound of the present invention−a green area of a control plot not treated with the compound of the present invention)/(a green area of a control plot not treated with the compound of the present invention that has not yet been subjected to low-temperature stress treatment−green area of a control plot not treated with the compound of the present invention) Equation (1): […]

SMILES | change in vivo at 10 ppm [1] [%] | relative leaf area (% of untreated control) at 1 ppm [2] [%] | change in vivo at 0.3 ppm [3] [%] | change in vivo at 0.1 ppm [4] [%] | relative leaf area (% of untreated control) at 0.1 ppm [5] [%] | change in vivo at 1 ppm [3] [%] | change in vivo at 10 ppm [3] [%]
COc1ccc(NC(=O)c2cc3cc(C(F)(F)F)ccc3o2)c(OC)c1 [Compound 5, N-(2,4-dimethoxyphenyl)-5-trifluoromethylbenzofuran-2-carboxamide] | > 5 | ≥ 5 | > 5 |  |  |  | 
COC(=O)c1nc2ccccc2o1 [Compound 16, methyl benzoxazole-2-carboxylate] |  |  |  | > 5 | ≥ 5 | > 5 | 
CCOC(=O)c1cc2cc(C(F)(F)F)ccc2o1 [Compound 4, ethyl 5-trifluorometethylbenzofuran-2-carboxylate] | > 5 | ≥ 5 |  |  |  |  | > 5
O=C(O)c1cc2cc(C(F)(F)F)ccc2[nH]1 [Compound 7, 5-trifluoromethylindole-2-carboxylic acid] |  |  |  | > 5 | ≥ 5 | > 5 | 
O=C(O)c1nc2cc(C(F)(F)F)ccc2[nH]1 [Compound 20, 5-(trifluoromethyl)-benzimidazole-2-carboxylic acid] |  | ≥ 5 | > 5 | > 5 |  |  | 
O=C(O)c1cc2cc(C(F)(F)F)ccc2o1 [Compound 2, 5-trifluoromethylbenzofuran-2-carboxylic acid] |  | ≥ 5 |  | > 5 |  |  | > 5
